# According to US20130316015A1, “Methods for Repairing Cartilage” (MOUNT SINAI HOSPITAL, priority 2011, published 2013):
# Tested on: full thickness chondrocytes
# Assay: In vitro-formed cartilage on membrane inserts: DNA, GAG and collagen contents
# Type: cell-based, calves
# Protocol: Membrane inserts (Millicell-CM®, Millipore Corp., Bedford, Mass., USA) were coated with type II collagen (0.5 mg/ml in 0.1N acetic acid; Sigma Chemical Co., St. Louis, Mo., USA) and dried overnight. The membrane inserts were UV sterilized for 30 minutes and soaked in Ham's F12 for 30 minutes prior to cell culturing.
# Cartilage was aseptically excised from the full thickness of metacarpal-phalangeal articular cartilage from 9 to 12 months old calves within 24 hours of death as previously described. For the experiment investigating the response of chondrocytes zonal subpopulations to inorganic polyphosphate, cartilage was excised as the superficial-mid zone (top 70%) and the deep-zone (bottom 30%). Chondrocytes were harvested from the tissue by sequential enzymatic digestion (0.5% protease (Sigma Chemical Co., St. Louis, Mo., USA) for 2 hours followed by 0.1% collagenase (Roche Diagnostics GmbH, Mannheim, Germany) overnight). The cells were then seeded on top of membrane inserts (1×10^6 cells per construct) in Ham's F-12 supplemented with 5% fetal bovine serum (FBS) (HyClone, Logan, Utah, USA) and incubated at 37° C. in an atmosphere characterized by 95% relative humidity and 5% CO2. On day 5, the serum concentration was changed to 20% and supplemented with ascorbic acid (100 μg/ml, Sigma Chemical Co., St. Louis, Mo., USA). At this time, cultures were incubated in the presence or absence of various concentrations of sodium phosphate glasses (inorganic polyphosphate; Sigma Chemical Co., St. Louis, Mo., USA) or sodium phosphate buffer. The concentrations of inorganic polyphosphate utilized for each experiment are calculated based on the phosphate content. Cultures were grown for up to 4 weeks following initiation of the inorganic polyphosphate treatment. […]
# In vitro and ex vivo-cultured cartilage tissues were harvested and washed twice in PBS. […] The fluorescence was visualized with a Zeiss Axioplan epifluorescence microscope using a wide pass DAPI filter. […]
# Cartilage tissues were digested with papain (Sigma Chemical Co., St. Louis, Mo., USA; 40 μg·ml^−1) in digestion buffer (20 mM ammonium acetate, 1 mM EDTA and 2 mM DTT) for 48 hours at 65° C. […] The DNA content was assessed using the Hoechst 33258 dye (Polysciences Inc., Washington, Pa., USA) binding assay and fluorometry (emission wavelength: 458 nm; excitation wavelength: 365 nm). […]
# The proteoglycan and collagen contents of cartilage tissues were also measured from aliquots of the papain digest. The proteoglycan content was estimated by quantifying the amount of sulphated GAG using the dimethylmethylene blue dye (Polysciences Inc., Washington, Pa., USA) binding assay and quantifying the colour spectrophotometrically at 525 nm. […] The collagen content was estimated by quantifying the hydroxyproline. […]
# [1] = 1 mM, 2 weeks in culture, normalized to DNA content, mean ± SEM
smiles,measurement,setting,value
"O=P(O)(O)O [Phosphate, sodium phosphate]",DNA Content,"1 mM, 2 weeks in culture, mean ± SEM",8.5 ± 0.92 µg
same,Collagen Content,[1],105.3 ± 9.5 % of control
same,GAG Content,[1],112.5 ± 14.8 % of control
same,"DNA, GAG and collagen contents compared to non-supplemented medium","concentrations equivalent to those used for polyphosphate, 2 weeks",did not significantly alter
